Earlier results on five molecules are cited in article PMC4141160, “Peptide Inhibitor of Complement C1, a Novel Suppressor of Classical Pathway Activation: Mechanistic Studies and Clinical Potential” (Frontiers in Immunology, 2014).

The target of data set [1] is purified C1q. More on the design: method as in PMID 22906481. Conditions: surface plasmon resonance, read-out: mean equilibrium dissociation constant (KD). On the technique in general: SPR reads the build-up and loss of mass on a sensor chip optically.
For data set [2], the system named is CLR of C1q. Conditions: ELISA. For orientation: An ELISA detects its analyte on a solid surface through an enzyme-linked reagent.
The test system of data set [3] is classical pathway.
The test system of data set [4] is alternative pathway.
For data set [5], the system named is C1.
The subject of data set [6] is C1q. More on the design: method as in PMID 20728940.
The subject of data set [7] is transfused human RBCs. More on the design: method as in PMID 12576307. Conditions: mouse.
Data set [8] concerns C4a. Conditions: single i.v. injection at 30 mg/kg; ELISA.

For the molecule “IALILEPICCQERAA [PA, rearranged PIC1 Δ8–22 derivative, 15 residues]”, the equilibrium dissociation constant (Kd) – broadly, the concentration at which binding is half-saturated – in data set [1] is 33.3 nM. Besides, in data set [2], the “binding to the CLR of C1q” value was “specifically bind to the CLR of C1q”. The “Classical pathway inhibition values using 0.77 mM peptide” value (shortened to “Classical pathway inhibition values”) in data set [3] is 85%.

With “PAICQRAEIEACILL [Δ8–22, CPP1 with central region removed, functional peptide of 15 residues]”, in data set [3], the “Classical pathway inhibition values” value was 70%. Further, the “effect on the alternative pathway” value in data set [4] is recorded as “minimal effect”.

Turning to “PAICQRATATLGTVGSNTSGTTEIEACILL [CPP1, 30-residue PIC1 derivative from the HNP-1 homology region of astrovirus CP]”, the “inhibition of C1 activation, as assayed by C1s cleavage” value in data set [5] is given as “inhibited C1 activation”. Further, the “inhibition of the binding of CP to C1q” value in data set [6] is “inhibited the binding of CP to C1q”. Besides, the “Classical pathway inhibition values” value in data set [3] was 50%.

As to sCR1: soluble complement receptor 1, the “hemolysis and C3 and C4 deposition on transfused human RBCs” value in data set [7] is “temporarily inhibit hemolysis as well as C3 and C4 deposition”.

B1: TNT009: humanized monoclonal analog of TNT003 (antibody, chains of the INN, looked up, V domains shown)
VH: EVQLVESGGGLVKPGGSLRLSCAASGFTFSNYAMSWVRQAPGKGLEWVATISSGGSHTYYLDSVKGRFTISRDNSKNTLYLQMNSLRAEDTALYYCARLFTGYAMDYWGQGTLVTVSS
VL: QIVLTQSPATLSLSPGERATMSCTASSSVSSSYLHWYQQKPGKAPKLWIYSTSNLASGVPSRFSGSGSGTDYTLTISSLQPEDFATYYCHQYYRLPPITFGQGTKLEIK
Regarding B1, the “in vivo generation of C4a” value in data set [8] is on record as “inhibited the in vivo generation of C4a”.
